Results from patent US12194043B2, “Uridine phosphorylase inhibitors to treat or prevent pulmonary disease” (Tosk, Inc., priority 2020, dated 2025).
“Also recorded” adds a separate entry of the source.

How the values were obtained:
plasma UR = assay: Plasma UR concentration versus plasma Compound 1 concentration after continuous infusion via sc implanted osmotic pumps; format: in vivo; details: BDF-1 male mice; for effect on plasma UR: constant-rate sc infusion 667, 833 or 3000 mg/kg/day, plasma at 72 h or 24 h
Method: Solutions of Compound I were prepared at a concentration of 500 mg/mL in sterile PBS. Osmotic pumps (ALZET® micro-osmotic pump 2001D and 1003D, Alza Co) were loaded with 200 μL (2001D osmotic pump) and/or 100 μL (1003D osmotic pump) of TK-112690 solution.
BDF-1 male mice (n=6) were treated with a constant-rate infusion of 667, 833 or 3000 mg/kg/day doses of Compound I delivered via subcutaneously implanted osmotic pumps. Animals were anesthetized with 100 mg/kg ketamine prior to pump implantation. Surgical scissors were used to make an approximately 1 cm incision on the dorsal surface near the shoulder blade of animals. A hemostat was used to carve out a subcutaneous tunnel toward the anterior end of animal. Osmotic pumps were placed inside the subcutaneous tunnel. Incision was sealed with wound clips.
Blood collections were performed on animals anesthetized with ketamine (ip 100 mg/kg). Blood samples from animals treated with a constant-rate infusion of TK-112690 were collected at 72 hours for 667 mg/kg/day and 833 mg/kg/day and 24 hours for 3000 mg/kg/day after pump implantation. Whole blood (˜0.8 mL) was drawn through the retro-orbital sinus using a heparin coated micro-hematocrit tube and collected into an EDTA microtainer tube. Blood samples were transferred into fresh 1.5 mL microcentrifuge tubes and centrifuged for 10 minutes at 14,000×g using an Eppendorf Minispin Plus stored in a 4° C. refrigerator. Exactly 0.4 mL of plasma was transferred into fresh microcentrifuge tubes containing 2 μL of 10 mM 5-FU and vortexed at highest setting for approximately 5 seconds. The final 50 μM concentration of 5-FU served as an internal standard. Animals were sacrificed by cervical dislocation and properly disposed.
Blood samples from animals treated with a constant-rate infusion of compound I were collected at 72 hours for 667 mg/kg/day and 833 mg/kg/day and 24 hours for 3000 mg/kg/day after pump implantation. […]
A solid-phase extraction (SPE) of analytes (UR, Compound I and 5-FU) from plasma was conducted before HPLC analysis. […] Samples were transferred into fresh HPLC vials and analyzed. […]

[1] = system: C57BL/6 male mice treated with bleomycin (pulmonary fibrosis); assay: Bleomycin/pulmonary fibrosis study, lung histology (Masson's trichrome, Ashcroft fibrosis grading); format: in vivo; details: bleomycin OA day 0, 60 mg/kg IP BID days 7 through 20; for statistical significance of the decrease in fibrosis vs dosing vehicle: SPSS version 20
From the text: FIG. 2. Figure is a chart providing histology scores for pulmonary tissue from mice treated with bleomycin (a well characterized lung toxin) and either dosing vehicle, UR, or TK-112690.
Thirty-three C57BL/6 male mice, 10-14 weeks at study initiation, were acclimatized for least 3 days. The mouse has been selected as is referenced in the literature as a representative species of choice for this experimental animal model. During acclimation and throughout the entire study duration, animals were housed within a limited access rodent facility and kept in groups of a maximum of 4 mice per cage. Mice were housed in polypropylene cages with solid bottoms and wood shavings or corn Cobb as bedding material. Animals were provided ad libitum with a commercial rodent diet and had free access to drinking water that is supplied to each cage via polyethylene bottles. The automatically controlled environmental conditions was set to maintain temperature at 20-26° C. with a relative humidity (RH) of 30-70%, a 12:12 hour light: dark cycle, and 10-15 air changes/hour in the study room. Animals were given a unique animal identification tail mark as a means of identification. This number also appeared on a cage card, which is visible on the front of each cage. The cage card also contains the study and group numbers, route of administration, gender, study director and arrival date.
Animals were randomly assigned to cages on arrival. Animals were assigned to treatment groups prior to treatment initiation. At study termination, surviving animals were weighed prior to euthanasia. Euthanasia was performed via anesthesia overdose and exsanguination.
The table below lists the experimental group(s) comprising the study.
Disease Induction. 75 uL of Bleomycin (section 4.5.) was administered on day 0 via oropharyngeal aspiration (O.A.). The mice were anesthetized via isoflurane/oxygen and suspended by their cranial incisors on a thin wire from an angled stand. The tongue was be gently held from the mouth using blunt forceps to visualize the base of the tongue and the pharynx. Bleomycin/saline suspension was pipetted onto posterior pharynx. Nostrils will be held gently closed. Respiration was monitored to ensure the suspension is fully aspirated.
Treatment. Groups 3 and 4 were treated via intraperitoneal (IP) injection at a dosing volume of 10 ml/kg twice daily, 6-8 hours between doses, from days 7 through 20.
Observations and Examinations. […]
Histology. […] Disease severity and collagen levels were assessed by the Ashcroft fibrosis grading system.
The resulting data were analyzed by SPSS, version 20.

[2] = Elimination t1/2 of Compound 1 in mice; details: mouse, in vivo
[3] = cited: Deng et al., Science 2017; cited from earlier work

half-life [2] [h]	SMILES	effect on plasma UR (plasma UR)	effect on plasma UR (plasma UR; listed as TK-112690)	slope of regression line, plasma UR concentration vs plasma Compound 1 concentration (plasma UR; continuous infusion of various amounts)	less fibrosis (histology score) than mice treated with the dosing vehicle [1] [%]	statistical significance of the decrease in fibrosis vs dosing vehicle [1]	elimination t1/2 [3]
1 to 2	Cc1cn2c(nc1=O)O[C@H]1[C@H](O)[C@@H](CO)O[C@H]12 [Compound 1]	elevate plasma UR in a linear fashion	elevate plasma UR in a linear fashion; also recorded: associated with higher levels of UR	0.010	30	statistically significant	–
–	O=c1ccn([C@@H]2O[C@H](CO)[C@@H](O)[C@H]2O)c(=O)[nH]1 [UR, uridine]	–	–	–	7	not statistically significant	only a few minutes
